From the NIST ThermoML archive (doi:10.1021/je500936y)

Experiments:
[1] = xn = mol fraction of the nth substance listed; settings: 100 kPa, Liquid; for speed of sound: Frequency=3 MHz, Sing-around technique in a fixed-path interferometer; for mass density: Vibrating tube method
[2] = refractive index (Na D-line) (dimensionless); xn = mol fraction of the nth substance listed; settings: 100 kPa, Liquid, Standard Abbe refractometry

C=CN1CCCC1=O [N-vinylpyrrolidone] + CCCCn1cc[n+](C)c1.F[B-](F)(F)F
Settings | mass density, [1] [kg/m3] | refractive index, [2] | speed of sound, [1] [m/s]
298.15 K, x2 = 0 | 1039.36 | 1.51119 | 1521.5
298.15 K, x2 = 0.1046 | 1069.96 | 1.4987 | 1537.3
298.15 K, x2 = 0.2035 | 1093.11 | 1.48698 | 1546
298.15 K, x2 = 0.3042 | 1113.53 | 1.47636 | 1552.7
298.15 K, x2 = 0.406 | 1131.03 | 1.46672 | 1557.8
298.15 K, x2 = 0.4945 | 1144.21 | 1.45868 | 1560.6
298.15 K, x2 = 0.607 | 1159.22 | 1.44913 | 1563.2
298.15 K, x2 = 0.697 | 1170.1 | 1.44241 | 1564.4
298.15 K, x2 = 0.7828 | 1179.78 | – | 1565.8
298.15 K, x2 = 0.9104 | 1191.59 | 1.42725 | 1566.1
303.15 K, x2 = 0 | 1034.95 | 1.50886 | 1502.5
303.15 K, x2 = 0.1046 | 1065.76 | 1.49659 | 1519.9
303.15 K, x2 = 0.2035 | 1089.01 | 1.48494 | 1529.6
303.15 K, x2 = 0.3042 | 1109.53 | 1.4745 | 1537.2
303.15 K, x2 = 0.406 | 1127.12 | 1.4648 | 1543
303.15 K, x2 = 0.4945 | 1140.37 | 1.45699 | 1546.2
303.15 K, x2 = 0.607 | 1155.45 | 1.44651 | 1549.5
303.15 K, x2 = 0.697 | 1166.39 | 1.44097 | 1551.4
303.15 K, x2 = 0.7828 | 1176.14 | 1.43197 | 1553
303.15 K, x2 = 0.9104 | 1187.99 | 1.42592 | 1553.9
308.15 K, x2 = 0 | 1030.55 | 1.5065 | 1483.7
308.15 K, x2 = 0.1046 | 1061.54 | 1.49444 | 1502.4
308.15 K, x2 = 0.2035 | 1084.92 | 1.48295 | 1513
308.15 K, x2 = 0.3042 | 1105.54 | 1.47251 | 1521.5
308.15 K, x2 = 0.406 | 1123.22 | 1.46308 | 1528
308.15 K, x2 = 0.4945 | 1136.54 | 1.45534 | 1532.1
308.15 K, x2 = 0.607 | 1151.7 | 1.44502 | 1535.8
308.15 K, x2 = 0.697 | 1162.69 | 1.43944 | 1538.3
308.15 K, x2 = 0.7828 | 1172.5 | 1.43065 | 1540.6
308.15 K, x2 = 0.9104 | 1184.4 | 1.42459 | 1542.1
313.15 K, x2 = 0 | 1026.14 | 1.50415 | 1465
313.15 K, x2 = 0.1046 | 1057.33 | 1.49224 | 1485
313.15 K, x2 = 0.2035 | 1080.83 | 1.48108 | 1496.5
313.15 K, x2 = 0.3042 | 1101.56 | 1.47065 | 1505.9
313.15 K, x2 = 0.406 | 1119.32 | 1.46137 | 1513.2
313.15 K, x2 = 0.4945 | 1132.74 | 1.45369 | 1517.9
313.15 K, x2 = 0.607 | 1147.96 | 1.44349 | 1522.3
313.15 K, x2 = 0.697 | 1159.01 | 1.43784 | 1525.3
313.15 K, x2 = 0.7828 | 1168.89 | 1.42937 | 1528.1
313.15 K, x2 = 0.9104 | 1180.83 | 1.42327 | 1530.1
318.15 K, x2 = 0 | 1021.73 | 1.50181 | 1446.5
318.15 K, x2 = 0.1046 | 1053.13 | 1.49001 | 1467.7
318.15 K, x2 = 0.2035 | 1076.75 | 1.47899 | 1480.3
318.15 K, x2 = 0.3042 | 1097.59 | 1.46886 | 1490.4
318.15 K, x2 = 0.406 | 1115.44 | 1.45957 | 1498.5
318.15 K, x2 = 0.4945 | 1128.96 | 1.45198 | 1503.9
318.15 K, x2 = 0.607 | 1144.25 | 1.44199 | 1509
318.15 K, x2 = 0.697 | 1155.36 | 1.43632 | 1512.5
318.15 K, x2 = 0.7828 | 1165.3 | 1.42834 | 1515.7
318.15 K, x2 = 0.9104 | 1177.29 | 1.42194 | 1518.3
323.15 K, x2 = 0 | 1017.33 | 1.49948 | 1428.1
323.15 K, x2 = 0.1046 | 1048.93 | 1.4878 | 1450.6
323.15 K, x2 = 0.2035 | 1072.68 | 1.47691 | 1464.1
323.15 K, x2 = 0.3042 | 1093.63 | 1.46692 | 1475.1
323.15 K, x2 = 0.406 | 1111.58 | 1.45773 | 1483.9
323.15 K, x2 = 0.4945 | 1125.2 | 1.45015 | 1489.9
323.15 K, x2 = 0.607 | 1140.57 | 1.44042 | 1495.7
323.15 K, x2 = 0.697 | 1151.73 | 1.43462 | 1499.8
323.15 K, x2 = 0.7828 | 1161.76 | 1.42708 | 1503.5
323.15 K, x2 = 0.9104 | 1173.77 | 1.42061 | 1506.7
